Measured values from patent US20040122089A1, “Novel eicosanoid analgesics” (priority 2001, published 2004).
Read-outs that look alike come from different tables or passages of the source.

Experiments:
[1] = test system: anandamide membrane transporter (AMT); type: cell-based, rat; details: [14C]AEA uptake, RBL-2H3 cells
Method: (§1) The effect of compounds on the enzymatic hydrolysis of [^14C] AEA (6 μM) was studied by using membranes prepared from N18TG2 cells incubated with increasing concentrations of compounds in 50 mM Tris-HCL, pH 9, for 30 min at 37° C. [^14C] Ethanolamine produced from [^14C] AEA hydrolysis was quantified by scintillation spectroscopy and used to measure fatty acid amide hydrolase (FAAH) activity. The effect of compounds on the uptake of AEA by RBL-2H3 cells was studied with a procedure analogous to that described in Melck, ibid., and modified as described in Hilliard et al., J. Neurochem. 69:631-638 (1997). Cells were incubated with [^14C] AEA (4μM) for 5 min. at 37° C., in the presence or absence of varying concentrations of the inhibitors. Residual [1^4C] AEA in the incubation media after extraction with CHCl3/CH30H (2:1 by volume) was used as a measure of the AEA that was taken up by cells.
In consideration of the potent inhibition of the AMT previously observed with arvanil and its derivatives (see Melck, ibid), the seven compounds were also tested for their inhibitory effect on [^4C] […] Thus, the results in Table 1 confirm the existence of a partial overlap between the ligand recognition properties of VR1 receptors and the AMT (14.24).

AMT = type: cell-based, rat; details: RBL-2H3 cells; read-out: AMT IC50
Method: AEA. Cells were incubated with [^14C] AEA for 5 min at 37° C., in the presence or absence of varying concentrations of the inhibitors. Residual [^14C] AEA in the incubation media after extraction with CHCl3/CH3OH 2:1 (by vol.), determined by scintillation counting of the lyophilized organic phase, was used as a measure of the AEA that was taken up by cells.
CP55940 from whole rat brain membranes.

[2] = molecular target: T1, fatty acid amide hydrolase (FAAH) (Mus musculus, UniProt O08914); experiment: [14C]AEA hydrolysis by N18TG2 cell membranes; type: biochemical
T1 construct: membranes prepared from N18TG2 cells; endogenous in cells; host or cells: N18TG2 cell membranes
T1 sequence (O08914 1-579): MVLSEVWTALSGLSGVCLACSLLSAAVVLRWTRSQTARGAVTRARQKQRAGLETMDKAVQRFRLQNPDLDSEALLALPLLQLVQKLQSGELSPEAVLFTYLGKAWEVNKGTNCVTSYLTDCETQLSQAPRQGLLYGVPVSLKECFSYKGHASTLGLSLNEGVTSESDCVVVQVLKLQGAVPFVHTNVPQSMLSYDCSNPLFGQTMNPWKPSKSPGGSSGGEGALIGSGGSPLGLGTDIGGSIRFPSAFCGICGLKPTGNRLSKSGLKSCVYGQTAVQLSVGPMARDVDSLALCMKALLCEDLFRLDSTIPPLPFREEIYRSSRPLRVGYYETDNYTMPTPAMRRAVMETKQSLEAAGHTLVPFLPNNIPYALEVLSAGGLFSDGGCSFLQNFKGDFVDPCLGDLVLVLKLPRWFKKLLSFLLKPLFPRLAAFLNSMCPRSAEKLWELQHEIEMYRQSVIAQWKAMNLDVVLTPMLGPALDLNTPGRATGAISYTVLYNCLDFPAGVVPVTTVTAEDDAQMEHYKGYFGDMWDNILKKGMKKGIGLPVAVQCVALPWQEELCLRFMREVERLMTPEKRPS
Method: as §1
Accordingly, when the compounds were tested for their capability of inhibiting [^14C] […] This is in agreement with previous observations that Me-AEA, DMH-derivatives of AEA and arvanil are poor substrates for FAAH. The two exceptions were O-1856 and O-1895, which did inhibit the hydrolysis of [^14C] AEA, although not very potently.

CB2 receptors = molecular target: T2, CB2 receptors (Rattus norvegicus, UniProt Q9QZN9); experiment: CB2 binding, displacement of [3H]WIN55,212-2 from rat spleen membranes
T2 construct: rat spleen membranes, which contain mostly CB2 receptors; from tissue; host or cells: rat spleen membranes
T2 sequence (Q9QZN9 1-360): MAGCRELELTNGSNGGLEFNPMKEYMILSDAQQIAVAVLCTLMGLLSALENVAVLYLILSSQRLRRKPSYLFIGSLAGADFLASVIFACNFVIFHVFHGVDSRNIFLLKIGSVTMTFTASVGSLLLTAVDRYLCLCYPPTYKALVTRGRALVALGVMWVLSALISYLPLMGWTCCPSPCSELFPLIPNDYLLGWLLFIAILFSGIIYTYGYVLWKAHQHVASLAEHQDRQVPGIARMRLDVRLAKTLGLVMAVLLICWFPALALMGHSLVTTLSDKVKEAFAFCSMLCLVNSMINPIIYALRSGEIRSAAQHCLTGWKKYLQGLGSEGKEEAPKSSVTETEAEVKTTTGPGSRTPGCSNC
Method: (§2) For CB1 receptor binding, [^3H]CP-55,940 (Kd=[…]) was incubated with P2 membranes from whole rat brains as described in Compton et al., J. Pharm. Exp. Ther. 265:218-226 (1993). Displacement curves were generated by incubating drugs with 1 nM of [^3H]CP-55,940. The assays were performed in triplicate, and the results represent the combined data from three individual experiments. A separate set of experiments were conducted in which phenylmthylsulfonylfluoride (PMSF) was added at a concentration of 100 μm in order to prevent possible metabolism of the analogs. CB2 binding assays were performed as described in Melek et al., ibid. In all cases, Ki values were calculated applying the Cheng-Prusoff equation to the IC50 values (obtained by GraphPad) for the displacement of the bound radioligand by increasing concentrations of the test compounds.
(§3) In Table 1, affinity for CB1 and CB2 receptors was measured in displacement assays carried out using rat brain or spleen membranes and [^3H]CP 55,940 or […], respectively. Potency at human VR1 was established by measuring the stimulatory activity of the compounds on the Ca^2+ intracellular concentration in HEK cells transfected with cDNA encoding the human VR1 receptor. Efficacy at VR1 was measured by expressing the effect of a maximal concentration of each compound (usually 10 μM) as percent of the maximal possible effect obtained with 4 μM ionomycin. Data are means ±SEM of at least n=3 separate determinations. *Ki was determined in the presence of PMSF.
The hydroxy analog is much less CB1 vs. CB2 selective in both series.

human VR1 receptor = human VR1 receptor (Homo sapiens, UniProt Q8NER1); experiment: Ca2+ influx (Fluo-3) in HEK-hVR1 cells (Example 2); type: cell-based; set-up: expressed in transfected cells; host or cells: HEK 293 cells (HEK-hVR1); details: for VR1 efficacy: maximal concentration (usually 10 μM), percent of effect of 4 μM ionomycin
human VR1 receptor, sequence (Q8NER1 whole entry): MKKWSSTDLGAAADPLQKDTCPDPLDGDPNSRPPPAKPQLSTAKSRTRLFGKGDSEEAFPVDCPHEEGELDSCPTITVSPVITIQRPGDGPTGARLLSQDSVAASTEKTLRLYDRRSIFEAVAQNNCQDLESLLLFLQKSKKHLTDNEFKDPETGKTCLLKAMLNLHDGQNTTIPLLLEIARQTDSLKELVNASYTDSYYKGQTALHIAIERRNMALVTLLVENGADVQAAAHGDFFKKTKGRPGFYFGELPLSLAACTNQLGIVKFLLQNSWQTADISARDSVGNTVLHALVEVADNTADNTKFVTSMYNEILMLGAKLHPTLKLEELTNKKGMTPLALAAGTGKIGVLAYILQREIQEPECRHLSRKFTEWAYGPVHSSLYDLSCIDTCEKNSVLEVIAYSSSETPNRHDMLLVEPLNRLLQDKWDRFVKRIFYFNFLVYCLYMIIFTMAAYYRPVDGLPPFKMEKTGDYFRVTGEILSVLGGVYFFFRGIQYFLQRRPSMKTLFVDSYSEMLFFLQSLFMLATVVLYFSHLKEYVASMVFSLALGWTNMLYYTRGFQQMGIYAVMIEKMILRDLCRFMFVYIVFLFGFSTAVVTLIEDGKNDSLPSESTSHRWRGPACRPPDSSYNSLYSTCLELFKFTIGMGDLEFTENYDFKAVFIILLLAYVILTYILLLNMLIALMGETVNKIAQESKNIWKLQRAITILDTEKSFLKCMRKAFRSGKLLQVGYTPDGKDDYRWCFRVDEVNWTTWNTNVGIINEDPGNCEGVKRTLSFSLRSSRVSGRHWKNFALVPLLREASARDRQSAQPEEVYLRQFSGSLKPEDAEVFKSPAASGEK
Method: N18TG2 and RBL-2H3 cells were grown as described in Melck et al, Bioch. Biophys. Res. Commun. 262:275-284 (1999). Ionomycin was purchased from Sigma. DMH-arvanil, and six substituted dimethylpentyl (DMP) derivatives of arvanil and met-AEA were synthesized as described in Example 1.
HEK-hVR1 cells were prepared and loaded as described in De Petrocellis, et al., FEBS Lett. 483:52-56 (2000). Experiments were carried out by measuring fluorescence at 25° C. […] Capsazepine (1-5 μM) was added 30 minu. Before the test compounds.
as §3

CB1 receptors = CB1 receptors (Rattus norvegicus, UniProt P20272); experiment: CB1 receptor binding, displacement of [3H]CP-55,940 from rat brain P2 membranes (Example 2); set-up: from tissue; host or cells: whole rat brain membranes; details: for Ki: rat brain membranes
CB1 receptors, sequence (P20272 whole entry): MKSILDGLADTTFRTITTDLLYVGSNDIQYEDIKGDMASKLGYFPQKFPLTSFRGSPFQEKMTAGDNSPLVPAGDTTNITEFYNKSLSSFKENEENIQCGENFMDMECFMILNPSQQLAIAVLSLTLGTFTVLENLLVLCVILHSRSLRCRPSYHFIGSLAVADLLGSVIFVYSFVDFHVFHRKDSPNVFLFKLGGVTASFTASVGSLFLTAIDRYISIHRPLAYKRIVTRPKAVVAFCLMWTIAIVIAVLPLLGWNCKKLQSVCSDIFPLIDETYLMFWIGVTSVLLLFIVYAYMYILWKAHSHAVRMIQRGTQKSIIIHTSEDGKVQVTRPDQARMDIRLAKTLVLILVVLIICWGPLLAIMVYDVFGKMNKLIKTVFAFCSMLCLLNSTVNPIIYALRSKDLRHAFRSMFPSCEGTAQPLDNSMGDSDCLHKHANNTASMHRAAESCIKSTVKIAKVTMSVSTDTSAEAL
Method: as §2, §3

mice = experiment: Mouse 'tetrad' of tests after i.v. administration (Example 2); details: for ED50: Mus musculus, iv
[3] = read-out: Average ED50 for the four effects
[4] = read-out: R.I. (relative immobility) ED50
[5] = read-out: R.T. (rectal temperature) ED50
[6] = read-out: S.A. (spontaneous activity) ED50
[7] = read-out: T.F. (tail-flick) ED50
[8] = VR1 (EC50, nM), Ca2+ in HEK cells with human VR1
[9] = VR1 EC50, HEK cells with human VR1
[10] = CB1 (Ki, nM), determined in the presence of PMSF, [3H]CP 55,940, PMSF 100 μM
[11] = CB1 (Ki, nM), [3H]CP 55,940, without PMSF

| Structure (SMILES) | IC50 [1] [nM] | VR1 efficacy (human VR1 receptor) [%] | ED50 (mice; [3]) [mg/kg] | ED50 (mice; [4]) [mg/kg] | ED50 (mice; [5]) [mg/kg] | ED50 (mice; [6]) [mg/kg] | ED50 (mice; [7]) [mg/kg] | IC50 [2] [nM] | Ki (CB2 receptors) [nM] | EC50 (human VR1 receptor; [8]) [nM] | Ki (CB1 receptors; [10]) [nM] | Ki (CB1 receptors; [11]) [nM] | also measured |
| --- | --- | --- | --- | --- | --- | --- | --- | --- | --- | --- | --- | --- | --- |
| CCCCC/C=C\C/C=C\C/C=C\C/C=C\CCCC(=O)Nc1ccc(O)cc1 [AM404, reference compound] | 8100 | – | – | – | – | – | – | – | – | – | – | – | IC50 (AMT): 8100 ± 2600 nM |
| C[C@H](CO)NC(=O)CCC/C=C\C/C=C\C/C=C\C/C=C\C(C)(C)CCCCO [Compound O-1811, (R)-(16,16-Dimethyl-20-hydroxyeicosa-cis-5,8,11,14-tetraenoyl)-1′-hydroxy-2′-propylamine] | 42500 ± 3300 | 62.5 ± 0.8 | 0.773 | 0.663 | 0.188 | 0.996 | 1.24 | – | – | – | – | – | IC50 ([2]; [14C]AEA hydrolysis, N18TG2 cell membranes, read-out: FAAH (IC50)): > 50000 nM; Ki (CB2 receptors; rat spleen membranes, read-out: CB2 (Ki)): 800 ± 150 nM; EC50 (human VR1 receptor; Ca2+ in HEK cells with human VR1, read-out: VR1 (EC50)): 724 ± 99 nM; Ki (CB1 receptors; [3H]CP 55,940, PMSF 100 μM, read-out: CB1 (Ki, nM), determined in the presence of PMSF): 116 ± 11.1 nM; Ki (CB1 receptors; [3H]CP 55,940, without PMSF, read-out: CB1 (Ki)): 115 ± 25.2 nM; fold more potent in reducing body temperature than in increasing tail-flick latency (mice; mice, i.v.): approximately 10 fold |
| C[C@H](CO)NC(=O)CCC/C=C\C/C=C\C/C=C\C/C=C\C(C)(C)CCCCC#N [Compound O-1812, (R)-(20-cyano-16,16-Dimethyleicosa-cis-5,8,11,14-tetraenoyl)-1′-hydroxy-2′-propylamine] | 37000 ± 4500 | 50.0 | 0.025 | 0.017 | 0.05 | 0.017 | 0.014 | > 50000 | 3870 ± 235 | 1950 ± 184 | 4.6 ± 0.4 | 3.4 ± 0.5 | EC50 (human VR1 receptor; [9]): 1900 nM; VR1 efficacy (human VR1 receptor; listed as 0-1812): 50.0 ± 1.6%; fold more potent on CB1 than on CB2 (CB1 receptors): 1000 fold; fold more potent on CB1 than on VR1 (CB1 receptors): 580 fold |
| CCCCCCC(C)(C)/C=C\C/C=C\C/C=C\C/C=C\CCCC(=O)NCc1ccc(O)c(OC)c1 [Compound O-1839, 16,16-Dimethyl-docosa-5,8,11,14-all-cis-tetraenoic acid (4-hydroxy-3-methoxy-benzyl) amide] | 19300 ± 2300 | 71.9 ± 4.5 | 0.078 | – | 0.08 | 0.08 | 0.074 | > 50000 | > 10000 | 0.7 ± 0.08 | 201 ± 4.1 | 262 | – |
| COc1cc(CNC(=O)CCC/C=C\C/C=C\C/C=C\C/C=C\C(C)(C)CCCCO)ccc1O [Compound O-1856, 16,16-Dimethyl-20-hydroxy-eicosa-5,8,11,14-all-cis-tetraenoic acid (4-hydroxy-3-methoxy-benzyl) amide] | 42000 | 83.9 ± 5.1 | 0.873 | 0.76 | 1.45 | 0.47 | 0.81 | 14500 ± 3400 | > 10000 | 5 ± 0.7 | 1070 ± 134 | 790 | IC50 ([1]; listed as 0-1856): 40000 ± 3800 nM |
| C[C@H](CO)NC(=O)CCC/C=C\C/C=C\C/C=C\C/C=C\C(C)(C)CCCCBr [Compound O-1860, (R)-(20-Bromo-16,16-Dimethyleicosa-cis-5,8,11,14-tetraenoyl)-1′-hydroxy-2′-propylamine] | 40000 ± 4500 | 50.0 | 0.388 | 0.43 | 0.44 | 0.39 | 0.29 | > 50000 | > 10000 | 371 ± 34 | 1 ± 0.1 | 2.2 | EC50 (human VR1 receptor; [9]): 370 nM; VR1 efficacy (human VR1 receptor; listed as 0-1860): 62.1 ± 5.7% |
| COc1cc(CNC(=O)CCC/C=C\C/C=C\C/C=C\C/C=C\C(C)(C)CCCCC#N)ccc1O [Compound O-1895, 20-Cyano-16,16-dimethyl-eicosa-5,8,11,14-all-cis-tetraenoic acid (4-hydroxy-3-methoxy-benzyl) amide] | 38400 ± 3100 | 83.1 ± 6.1 | 0.219 | 0.168 | 0.179 | 0.265 | 0.263 | 18000 ± 2700 | 5000 ± 850 | 1 ± 0.2 | 44.8 ± 8.3 | 67 ± 7.5 | – |
